This passage reports IC50 results from US4895853A, “Antitumor alkaloids” (priority 1986, dated 1990).

This test relates to P388 mouse leukemia cells. The experiment in a line: P388 mouse leukemia cell assay (growth inhibition, 48 h). Type of test: cell-based. The following applies: read-out: P388 IC50. As to the method: The following assay method was utilized to illustrate the antitumor effectiveness of the compositions of Formulae I-V corresponding to manzamines B-D of the examples.
P388 mouse leukemia cells are grown in Dulbecco MEM medium with 10% horse serum, 4 mM glutamine, and 20 ug/ml gentamycin (Biologos, Inc.). Cells are incubated in 10% CO2 and subcultured 2 times per week.
1. Add compound to each well of a 24-well plate or tube and allow solvent to evaporate to dryness.
2. Add 2 ml (1.2×10^5) cells to each well or tube and mix.
3. Incubate in 10% CO2 at 37° for 48 hours.
4. Read platees with an inverted microscope, scoring activity from 1+ to 4+ as follows: ND (not detectable), >90%; 1+, 75-90%; 2+, 50-74%; 3+, 25-49%; 4+, <25% of control growth. Cell counts are performed on each tube and results are reported as percent of control. Alternatively, scoring may be expressed as IC50 which represents the minimum concentration of the composition required to inhibit 50% of the cell growth on the plate. […]

Converted amounts (≈) assume the structure as drawn. Read-outs that look alike come from different tables or passages of the source.

As a reminder, the IC50 is the concentration at which inhibition is half-maximal. As to `OC12C=C(c3nccc4c3[nH]c3ccccc34)C3CCN(CCCC/C=C\CC1)CC31CC3/C=C\CCCCN3C21` (stereo not shown) [Manzamine A, manzamine A, reference compound], the IC50 (Mus musculus, P388, 48 h) came out at 0.075 µg/mL (≈ 0.137 µM).
Regarding `C1=C\CCCCN(CCc2nccc3c2[nH]c2ccccc23)CCCC/1` [Manzamine C, manzamine C], the half-maximal inhibitory concentration (IC50) (P388 mouse leukemia cells, 48 hours at 37°, 10% CO2) is 3 µg/mL (≈ 8.63 µM).
As for `C1=C\CCC23CN4CCCC/C=C\CCC5(OC5C(c5nccc6c5[nH]c5ccccc56)C2CC4)C3NCCCC/1` (stereo not shown) [Manzamine B, manzamine B], for the setting “Mus musculus, P388, 48 h”, the IC50 stood at 6 µg/mL (≈ 10.9 µM).
For `OC12C=C(C3NCCc4c3[nH]c3ccccc43)C3CCN(CCCC/C=C\CC1)CC31CC3/C=C\CCCCN3C21` (stereo not shown) [Manzamine D, manzamine D], the IC50 (Mus musculus, P388, 48 h) was found to be 0.5 µg/mL (≈ 0.904 µM).
